PMC6792352, “Limited Chemical Structural Diversity Found to Modulate Thyroid Hormone Receptor in the Tox21 Chemical Library” (Environmental Health Perspectives, 2019)
Structures can show the parent of a compound that is named as a salt.

Assay: in vitro
Conditions: rat, gh3-tre-luc cells

Row | SMILES | CC50 at 24 h (AC50 (uM) modified / 1000) [µM] | further results
1 | O=[N+]([O-])c1cc(Cl)c(Cl)cc1Cl [2,4,5-Trichloronitrobenzene] |  | CC50 at 24 h (AC50 (uM) modified / 1000, Tox21_110001=Tox21_200937, viability, 1 nM T3 present, 24 h): > 90 µM
2 | Oc1cc(Cl)c(Cl)cc1Cl [2,4,5-Trichlorophenol] |  | CC50 at 24 h (AC50 (uM) modified / 1000, Tox21_110001=Tox21_111100, viability, 1 nM T3 present, 24 h): > 50 µM; CC50 at 24 h (AC50 (uM) modified / 1000, Tox21_110001=Tox21_201545, viability, 1 nM T3 present, 24 h): > 90 µM
3 | O=C(O)COc1cc(Cl)c(Cl)cc1Cl [2,4,5-Trichlorophenoxyacetic acid] | > 90 | 
4 | CCOc1cc(OCC)c(C(C)=O)cc1OCC [2,4,5-Triethoxyacetophenone] | 35.3 | 
5 | COc1cc(OC)c(OC)cc1C=O [2,4,5-Trimethoxybenzaldehyde] |  | CC50 at 24 h (AC50 (uM) modified / 1000, Tox21_110001=Tox21_400070, viability, 1 nM T3 present, 24 h): > 90 µM
6 | CC1=NC(C)OC1C (stereo not shown) [2,4,5-Trimethyl-3-oxazoline] | > 90 | 
7 | Cc1cc(C)c(N)cc1C [2,4,5-Trimethylaniline] | > 90 | 
8 | Oc1c(Br)cc(Br)cc1Br [2,4,6-Tribromophenol] |  | CC50 at 24 h (AC50 (uM) modified / 1000, Tox21_110001=Tox21_111098, viability, 1 nM T3 present, 24 h): > 50 µM; CC50 at 24 h (AC50 (uM) modified / 1000, Tox21_110001=Tox21_201273, viability, 1 nM T3 present, 24 h): > 90 µM
9 | Clc1nc(Cl)nc(Cl)n1 [2,4,6-Trichloro-s-triazine] |  | CC50 at 24 h (AC50 (uM) modified / 1000, Tox21_110001=Tox21_202449, viability, 1 nM T3 present, 24 h): > 90 µM
10 | Nc1c(Cl)cc(Cl)cc1Cl [2,4,6-Trichloroaniline] | > 90 | 
11 | O=[N+]([O-])c1c(Cl)cc(Cl)cc1Cl [2,4,6-Trichloronitrobenzene] | > 90 | 
12 | Clc1cc(Cl)nc(Cl)n1 [2,4,6-Trichloropyrimidine] | > 90 | 
13 | Cc1cc(C)c(C(=O)O)c(C)c1 [2,4,6-Trimethylbenzoic acid] | > 90 | 
14 | Cc1cc(C)c(O)c(C)c1 [2,4,6-Trimethylphenol] | > 90 | 
15 | C=CCOc1nc(OCC=C)nc(OCC=C)n1 [2,4,6-Tris(allyloxy)-1,3,5-triazine] | > 90 | 
16 | CN(C)Cc1cc(CN(C)C)c(O)c(CN(C)C)c1 [2,4,6-Tris(dimethylaminomethyl)phenol] | > 90 | 
17 | CCCCOC(=O)COc1ccc(Cl)cc1Cl [2,4-D 1-butyl ester] | > 90 | 
18 | CC(C)CCCCCOC(=O)COc1ccc(Cl)cc1Cl [2,4-D isooctyl ester] | > 90 | 
19 | CC(C)OC(=O)COc1ccc(Cl)cc1Cl [2,4-D isopropyl ester] | > 90 | 
20 | O=C(O)COc1ccc(Cl)cc1Cl [2,4-D, Dimethylamine salt] | > 90 | 
21 | CCCCOCCOC(=O)COc1ccc(Cl)cc1Cl [2,4-D-Butotyl] | > 90 | 
22 | CCOC(=O)COc1ccc(Cl)cc1Cl [2,4-D-ethyl ester] |  | CC50 at 24 h (AC50 (uM) modified / 1000, Tox21_110001=Tox21_302216, viability, 1 nM T3 present, 24 h): > 90 µM

Row | SMILES | CC50 at 24 h (AC50 (uM) modified / 1000) [µM] | further results
23 | CC(C)COC(=O)COc1ccc(Cl)cc1Cl [2,4-D-isobutyl] | > 90 | 
24 | COC(=O)COc1ccc(Cl)cc1Cl [2,4-D-methyl] | > 90 | 
25 | CC(C)CCCCCOC(=O)CCCOc1ccc(Cl)cc1Cl [2,4-DB-isooctyl ester] | > 90 | 
26 | O=C(O)CCCOc1ccc(Cl)cc1Cl [2,4-DB-sodium] | > 90 | 
27 | Nc1cc(O)nc(N)n1 [2,4-Diamino-6-hydroxypyrimidine] | > 50 | 
28 | COc1ccc(N)cc1N [2,4-Diaminoanisole sulfate] | 24.6 | 
29 | Nc1ccc(S(=O)(=O)O)c(N)c1 [2,4-Diaminobenzenesulfonic acid] | > 90 | 
30 | Cc1ccc(N)cc1N [2,4-Diaminotoluene] | > 90 | 
31 | O=[N+]([O-])c1cc(C(F)(F)F)c(Cl)c([N+](=O)[O-])c1Cl [2,4-Dichloro-1,3-dinitro-5-(trifluoromethyl)benzene] | 2.31 | 
32 | ClCc1ccc(Cl)cc1Cl [2,4-Dichloro-1-(chloromethyl)benzene] | > 90 | 
33 | Clc1ccc(C(Cl)(Cl)Cl)c(Cl)c1 [2,4-Dichloro-1-(trichloromethyl)benzene] | > 90 | 
34 | Cc1cc(O)c(Cl)c(C)c1Cl [2,4-Dichloro-3,5-dimethylphenol] | 56.9 | 
35 | Nc1c(Cl)cc(Cl)cc1[N+](=O)[O-] [2,4-Dichloro-6-nitroaniline] | > 90 | 
36 | Nc1ccc(Cl)cc1Cl [2,4-Dichloroaniline] | > 90 | 
37 | O=Cc1ccc(Cl)cc1Cl [2,4-Dichlorobenzaldehyde] |  | CC50 at 24 h (AC50 (uM) modified / 1000, Tox21_110001=Tox21_201217, viability, 1 nM T3 present, 24 h): > 90 µM
38 | O=C(O)c1ccc(Cl)cc1Cl [2,4-Dichlorobenzoic acid] | > 90 | 
39 | FC(F)(F)c1ccc(Cl)cc1Cl [2,4-Dichlorobenzotrifluoride] | > 90 | 
40 | OCc1ccc(Cl)cc1Cl [2,4-Dichlorobenzyl alcohol] | > 90 | 
41 | O=[N+]([O-])c1ccc(Cl)cc1Cl [2,4-Dichloronitrobenzene] | > 90 | 
42 | Oc1ccc(Cl)cc1Cl [2,4-Dichlorophenol] | > 90 | 
43 | O=S(=O)(Oc1ccc(Cl)cc1Cl)c1ccccc1 [2,4-Dichlorophenyl benzenesulfonate] | > 90 | 
44 | O=C(O)Cc1ccc(Cl)cc1Cl [2,4-Dichlorophenylacetic acid] | > 90 | 

Row | SMILES | CC50 at 24 h (AC50 (uM) modified / 1000) [µM] | further results
45 | Clc1ccnc(Cl)n1 [2,4-Dichloropyrimidine] | > 90 | 
46 | Cc1ccc(Cl)cc1Cl [2,4-Dichlorotoluene] | > 90 | 
47 | Nc1ccc(F)cc1F [2,4-Difluoroaniline] | > 90 | 
48 | O=[N+]([O-])c1ccc(F)cc1F [2,4-Difluoronitrobenzene] | > 90 | 
49 | O=C(O)c1ccc(O)cc1O [2,4-Dihydroxybenzoic acid] | > 90 | 
50 | O=C(c1ccccc1)c1ccc(O)cc1O [2,4-Dihydroxybenzophenone] | > 90 | 
51 | CC(C)c1ccc(O)c(C(C)C)c1 [2,4-Diisopropylphenol] | > 90 | 
52 | COc1ccc(N)c(OC)c1 [2,4-Dimethoxyaniline hydrochloride] | > 50 | 
53 | CC1=CC(C)C(C=O)CC1 (stereo not shown) [2,4-Dimethyl-3-cyclohexene-1-carboxaldehyde] | > 90 | 
54 | Cc1ccc(N)c(C)c1 [2,4-Dimethylaniline] | > 90 | 
55 | Cc1ccc(O)c(C)c1 [2,4-Dimethylphenol] | > 90 | 
56 | O=[N+]([O-])c1ccc(O)c([N+](=O)[O-])c1 [2,4-Dinitrophenol] |  | CC50 at 24 h (AC50 (uM) modified / 1000, Tox21_110001=Tox21_201462, viability, 1 nM T3 present, 24 h): > 90 µM; CC50 at 24 h (AC50 (uM) modified / 1000, Tox21_110001=Tox21_300030, viability, 1 nM T3 present, 24 h): 56.2 µM
57 | NC(=S)NC(N)=S [2,4-Dithiobiuret] | > 90 | 
58 | C/C=C/C=C/COC(=O)C(C)C [2,4-Hexadienyl isobutyrate] | 75.5 | 
59 | C[C@@H](O)C[C@@H](C)O [2,4-Pentanediol] | > 90 | 
60 | CC(=O)CC(C)=O [2,4-Pentanedione] | > 100 | 
61 | COCCOCCOCCOCCOCCO [2,5,8,11,14-Pentaoxahexadecan-16-ol] | > 90 | 
62 | COCCOCCOCCOCCOC [2,5,8,11,14-Pentaoxapentadecane] | > 90 | 
63 | COCCOCCOCCOCCO [2,5,8,11-Tetraoxatridecan-13-ol] | > 90 | 
64 | CCC(C)(C)c1cc(O)c(C(C)(C)CC)cc1O [2,5-Bis(2-methylbutan-2-yl)benzene-1,4-diol] | 53.8 | 
65 | CC(C)(C)c1cc(O)c(C(C)(C)C)cc1O [2,5-Di-tert-butylbenzene-1,4-diol] | 37.2 | 
66 | O=C(O)c1cc(Cl)cc([N+](=O)[O-])c1Cl [2,5-Dichloro-3-nitrobenzoic acid] | > 90 | 

Row | SMILES | CC50 at 24 h (AC50 (uM) modified / 1000) [µM] | further results
67 | Nc1cc(Cl)ccc1Cl [2,5-Dichloroaniline] | > 90 | 
68 | COc1cc(Cl)ccc1Cl [2,5-Dichloroanisole] | > 90 | 
69 | O=C(O)c1cc(Cl)ccc1Cl [2,5-Dichlorobenzoic acid] |  | CC50 at 24 h (AC50 (uM) modified / 1000, Tox21_110001=Tox21_200321, viability, 1 nM T3 present, 24 h): > 90 µM
70 | Oc1cc(Cl)ccc1Cl [2,5-Dichlorophenol] | > 90 | 
71 | Sc1nnc(S)s1 [2,5-Dimercapto-1,3,4-thiadiazole] | > 90 | 
72 | COc1cc(Cl)c(OC)cc1N [2,5-Dimethoxy-4-chloroaniline] | > 90 | 
73 | COc1ccc(OC)c(CC(C)N)c1 (stereo not shown) [2,5-Dimethoxyamphetamine hydrochloride] | > 100 | 
74 | CC1(O)CSC(C)(O)CS1 (stereo not shown) [2,5-Dimethyl-1,4-dithiane-2,5-diol] | > 90 | 
75 | CC(C)(O)C#CC(C)(C)O [2,5-Dimethyl-3-hexyne-2,5-diol] | > 90 | 
76 | Cc1ccc(C)c(N)c1 [2,5-Dimethylaniline] | > 90 | 
77 | Cc1ccc(C)c(S(=O)(=O)O)c1 [2,5-Dimethylbenzenesulfonic acid] | > 80 | 
78 | Cc1ccc(C)o1 [2,5-Dimethylfuran] | > 90 | 
79 | CC(C)(O)CCC(C)(C)O [2,5-Dimethylhexane-2,5-diol] | > 90 | 
80 | Cc1ccc(C)c(O)c1 [2,5-Dimethylphenol] | > 90 | 
81 | NC(=S)NNC(N)=S [2,5-Dithiobiurea] | > 90 | 
82 | O=C1C=CC(=O)O1 [2,5-Furandione] | > 100 | 
83 | CC(=O)CCC(C)=O [2,5-Hexanedione] | > 90 | 
84 | CC1=C(CC=O)C(C)(C)CCC1 [2,6,6-Trimethyl-1-cyclohexene-1-acetaldehyde] | > 90 | 
85 | CC1=CC(=O)CC(C)(C)C1=O [2,6,6-Trimethyl-2-cyclohexene-1,4-dione] | > 90 | 
